In paper PMC9786284, “Synthesis and Antiproliferative Effect of Halogenated Coumarin Derivatives” (Molecules, 2022):

Columns and labels:
Format in all cases: cell-based
[1] = tested on: TPC-1 cells; assay: Intracellular reduced and oxidized glutathione (GSH/GSSG) by HPLC-ECD; settings: 20 µM, 24 h, untreated cells 100%
Description: (§1) Redox perturbation was further investigated by measuring intracellular antioxidant species. In Nthy-ori3-1 cells, coumarin 2k at 20 µM improved the GSH concentration measured as GSH/GSSG ratio (p < 0.001), leading to values close to 200% with respect to the untreated cells (100%), while coumarin 2h increased the level of GSH but with less evidence (about 40% more than the untreated control cells, p < 0.01) (Figure 4). […] The Keap1/Nrf2/ARE system is a mechanism that plays a key role in the pathogenesis and progression of several diseases. It is a central defensive mechanism against oxidative stress.
(§2) Reduced glutathione (GSH) and oxidized glutathione (GSSG) levels were determined with high-performance liquid chromatography coupled with an electrochemical detector (HPLC-ECD), as described in previous studies. In detail, Nthy-ori3-1 and TPC-1 cells were seeded in 6-well plates at the density of 1 × 10^5 cells/2 mL and incubated for 24 h. Cells were then treated with 2k and 2h (20 µM) for 24 h. After the incubation, cells were scraped and extracted with 150 µL of 10% meta-phosphoric acid and 150 µL of 0.05% trifluoroacetic acid (TFA) (Merck, Milan, Italy) solution. After centrifugation, 10 µL of supernatant was collected for protein determination, and the remaining part was injected into the HPLC system. GSH and GSSG amounts were measured using an HPLC (Agilent 1260 infinity, Agilent Technologies, Palo Alto, CA, USA) equipped with an electrochemical detector (DECADE II Antec, Leyden, The Netherlands) and an Agilent interface 35900E. A calibration curve was created using standards of GSH and GSSG (Merck, Milan, Italy), injected with different concentrations. Data were collected and expressed as a percentage of the control cells (100%) of the ratio between GSH and GSSG normalized using µg of total proteins.

[2] = tested on: Nthy-ori3-1 cells; assay: as above; settings: 20 µM, 24 h
Description: as §1, §2

[3] = tested on: TPC-1 cells; assay: Intracellular ROS production (H2-DCF-DA probe); settings: 20 and 100 μM, 30 to 120 min
Description: (§3) It has been reported that coumarins and their derivatives are able to regulate the reactive oxygen species (ROS). For example, esculetin induces cytotoxicity in pancreatic cancer cells decreasing ROS and protein levels of the ROS-dependent transcription factor NF-κB [49]. On the other end, coumarins induce the generation and accumulation of ROS in cancer cells causing cell cycle arrest and apoptotic cell death. […] Conversely, 2h produces an antiproliferative response in TPC-1 cells by scavenging ROS. In an attempt of a better understanding of the results, such compounds were explored from an electrochemical point of view by means of cyclic voltammetry in anhydrous acetonitrile.
(§4) PTC-derived and control cells were seeded in 96-well plates (7.5 × 10^3/mL) to detect intracellular ROS production and grown for 24 h. Cells were then washed with PBS 1X solution and incubated for 30 min with 2′,7′-dichlorofluorescein diacetate probe (H2-DCF-DA) (Merck, Milan, Italy) (10 μM), as previously described. […] After 1 h of incubation, excess H2-DCF-DA was removed and replaced with PBS, and then ROS levels were measured by using a microplate reader (Infinite 200, Tecan, Salzburg, Austria) at a controlled temperature of 37 °C. The measurement was performed using an excitation of 490 nm and an emission of 520 nm. ROS production was evaluated for 2 h and monitored, taking readings at intervals of 5 min.

[4] = tested on: Nthy-ori-3-1 cells; assay: Intracellular ROS production (H2-DCF-DA probe); settings: only with 100 μM
Description: as §3, §4

[5] = tested on: TPC-1 cells; assay: Cell cycle analysis by flow cytometry (PI/RNase staining); settings: 20 µM, 24 h, compared with untreated cells
Description: Among the potential mechanisms involved in the treatment of cancer, there is the arrest of the cell cycle. To detect whether the cytotoxicity of coumarins 2k and 2h resulted from cell cycle progression, the effects on the cell cycle of TPC-1 cells were analyzed by flow cytometry after labeling with PI (propidium iodide)/RNase Staining Buffer detection kit. […] According to apoptosis results, the cell cycle arrest could be responsible for the cytotoxicity in cancer cells. In the present study, it was observed that coumarin 2k determined cell arrest of TPC-1 cells in the G2/M phase, indicating the apoptotic mode of cell death and inhibition of DNA synthesis (S phase reduction). This finding is consistent with previous investigations reporting that coumarins able to induce cytotoxicity by inducing G2/M and S phases arrest in different cancer cell lines.
The cells were seeded (5 × 10^4 cells/mL) in six-well plates (Corning, Tewksbury, MA, USA). After 24 h, they were treated with coumarins (20 µM) for 24 h. Cell cycle analysis was performed by using the Invitrogen™ FxCycle™ PI/RNase Staining Solution (according to the manufacturer’s instructions, Thermo Fisher Scientific, Waltham, MA, USA), and then the DNA content was evaluated by flow cytometry (MoFloAstrios EQ, Beckman Coulter, Brea, CA, USA). The analysis of cell cycle phase distribution was accomplished via Kaluza Flow Cytometry Analysis Software (Software Version 1.2, Beckman Coulter) by setting 3 gates in each single parameter histogram: G0/G1, S, and G2/M.

SMILES | GSH/GSSG ratio, percentage of untreated cells [1] | GSH/GSSG ratio, percentage of untreated cells ([2]; untreated cells 100%) | ROS generation [3] | effect on ROS [4] | effect on G2/M phase cell population [5] | effect on S phase cell population [5] | increase in level of GSH over untreated control cells ([2]; more than the untreated control)
N#Cc1cc2cc(I)cc(I)c2oc1=O [2k, 6,8-diiodo-2-oxo-2H-chromene-3-carbonitrile] | about 200% | about 200% | significant increase in ROS generation | pro-oxidant | increase in TPC-1 cells in the G2/M phase | decreases the cell population in the S phase | 
N#Cc1cc2cc(Br)cc(Br)c2oc1=O [2h, 6,8-dibromo-2-oxo-2H-chromene-3-carbonitrile] | up to 500% |  | decreased ROS generation | antioxidant | same trend |  | about 40%
